Results from publication PMC12299554 (Pharmaceuticals, 2025).

Key:
[1] = target: T1, AChE (EC 3.1.1.7, Electrophorus electricus, Type V-S) (Electrophorus electricus, UniProt O42275); experiment: biochemical; settings: mean of three measurements ± standard deviation
T1 construct: purchased Sigma-Aldrich Type V-S
Protocol: All measurements were conducted in triplicate. […] The selectivity index is calculated as IC50(AChE)/IC50(BChE).

PBMCs = experiment: Cell viability of LPS-stimulated PBMCs (CellTiter-Glo); type: cell-based; settings: human PBMCs, 24 h; three-fold dilutions starting at 100 µM
[2] = target: BChE (EC 3.1.1.8, equine serum) (Equus caballus, UniProt P81908); experiment: biochemical
[3] = system: LPS-stimulated TNF-α production in human peripheral blood mononuclear cells (PBMCs); experiment: Inhibition of LPS-stimulated TNF-α production in PBMCs (ELISA); settings: for Inhibition of LPS-stimulated TNF-α production (in words): human PBMCs, three-fold dilutions starting at 100 µM; for IC50: Homo sapiens, PBMC, 24 h, read-out: IC50 of LPS-stimulated TNF-α production

BChE (EC 3.1.1.8, equine serum), sequence (P81908 whole entry): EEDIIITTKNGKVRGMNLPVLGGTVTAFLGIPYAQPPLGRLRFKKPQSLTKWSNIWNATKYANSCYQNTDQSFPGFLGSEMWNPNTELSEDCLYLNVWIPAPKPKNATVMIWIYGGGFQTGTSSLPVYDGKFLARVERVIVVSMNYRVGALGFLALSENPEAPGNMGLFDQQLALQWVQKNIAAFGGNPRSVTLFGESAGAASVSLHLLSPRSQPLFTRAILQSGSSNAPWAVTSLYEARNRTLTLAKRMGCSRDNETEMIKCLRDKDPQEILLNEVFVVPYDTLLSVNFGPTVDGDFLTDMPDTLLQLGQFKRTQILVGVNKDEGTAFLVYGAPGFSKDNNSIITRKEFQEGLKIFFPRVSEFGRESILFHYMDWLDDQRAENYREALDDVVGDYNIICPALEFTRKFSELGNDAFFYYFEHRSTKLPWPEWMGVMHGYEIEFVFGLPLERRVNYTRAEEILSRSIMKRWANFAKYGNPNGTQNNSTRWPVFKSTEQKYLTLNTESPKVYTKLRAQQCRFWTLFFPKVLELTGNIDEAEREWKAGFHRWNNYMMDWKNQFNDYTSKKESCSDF
T1 sequence (O42275 24-633): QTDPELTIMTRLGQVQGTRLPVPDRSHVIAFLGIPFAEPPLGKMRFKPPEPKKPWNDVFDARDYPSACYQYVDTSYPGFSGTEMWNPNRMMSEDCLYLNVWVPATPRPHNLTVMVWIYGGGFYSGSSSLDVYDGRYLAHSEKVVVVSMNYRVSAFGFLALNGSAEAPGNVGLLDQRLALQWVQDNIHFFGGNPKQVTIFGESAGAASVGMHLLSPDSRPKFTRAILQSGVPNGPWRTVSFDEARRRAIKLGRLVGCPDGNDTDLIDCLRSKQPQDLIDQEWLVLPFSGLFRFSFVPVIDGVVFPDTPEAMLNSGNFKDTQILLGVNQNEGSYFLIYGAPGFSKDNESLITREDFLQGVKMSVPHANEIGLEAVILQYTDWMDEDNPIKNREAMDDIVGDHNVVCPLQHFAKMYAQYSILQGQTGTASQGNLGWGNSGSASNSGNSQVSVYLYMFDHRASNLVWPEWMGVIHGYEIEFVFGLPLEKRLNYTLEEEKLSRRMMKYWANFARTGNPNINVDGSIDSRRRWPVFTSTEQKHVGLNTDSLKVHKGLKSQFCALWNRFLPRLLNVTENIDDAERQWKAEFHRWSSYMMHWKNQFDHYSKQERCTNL

SMILES | IC50 [1] | Effect on cell viability (in words) (PBMCs) | IC50 [2] | Inhibition of LPS-stimulated TNF-α production (in words) [3] | IC50 [3]
Cc1ccc(C[n+]2nn(Cc3ccc(Cl)cc3)c3c4ccsc4ccc32)cc1.[Br-] [Compound 1, 1-(4-chlorobenzyl)-3-(4-methylbenzyl)-1H-thieno[3′,2′:3,4]benzo[1,2-d][1,2,3]triazol-3-ium bromide] | 12.7 ± 1.85 µM | decreased cell viability | 2.55 ± 0.58 µM | did not inhibit TNF-α production | 
Clc1ccc(Cn2n[n+](Cc3ccc(Cl)cc3)c3ccc4sccc4c32)cc1.[Br-] [Compound 2, 1,3-bis(4-chlorobenzyl)-1H-thieno[3′,2′:3,4]benzo[1,2-d][1,2,3]triazol-3-ium bromide] | 10.7 ± 1.46 µM | decreased cell viability | 4.99 ± 1.1 µM | did not inhibit TNF-α production | 
Cc1cc2c(ccc3c2n(Cc2ccc(Cl)cc2)n[n+]3Cc2ccc(Cl)cc2)s1.[Br-] [Compound 3, 1,3-bis(4-chlorobenzyl)-7-methyl-1H-thieno[3′,2′:3,4]benzo[1,2-d][1,2,3]triazol-3-ium bromide] | 8.89 ± 3.26 µM |  | 7.6 ± 0.82 µM | did not inhibit TNF-α production at any tested concentrations | 
Clc1cccc(Cn2n[n+](Cc3ccccc3)c3ccc4sccc4c32)c1.[Br-] [Compound 4, 3-benzyl-1-(3-chlorobenzyl)-1H-thieno[3′,2′:3,4]benzo[1,2-d][1,2,3]triazol-3-ium bromide] |  | decreased cell viability |  | did not inhibit TNF-α production | 
Cc1ccc(C[n+]2nn(Cc3cccc(Cl)c3)c3c4ccsc4ccc32)cc1.[Br-] [Compound 5, 1-(3-chlorobenzyl)-3-(4-methylbenzyl)-1H-thieno[3′,2′:3,4]benzo[1,2-d][1,2,3]triazol-3-ium bromide] | 55.6 ± 2.36 µM | decreased cell viability | 8.13 ± 0.83 µM | did not inhibit TNF-α production | 
Clc1ccc(C[n+]2nn(Cc3cccc(Cl)c3)c3c4ccsc4ccc32)cc1.[Br-] [Compound 6, 1-(3-chlorobenzyl)-3-(4-chlorobenzyl)-1H-thieno[3′,2′:3,4]benzo[1,2-d][1,2,3]triazol-3-ium bromide] | 12.9 ± 0.87 µM |  | 0.96 ± 0.14 µM | did not inhibit TNF-α production at any tested concentrations | 
O=[N+]([O-])c1ccc(C[n+]2nn(Cc3cccc(Cl)c3)c3c4ccsc4ccc32)cc1.[Br-] [Compound 7, 1-(3-chlorobenzyl)-3-(4-nitrobenzyl)-1H-thieno[3′,2′:3,4]benzo[1,2-d][1,2,3]triazol-3-ium bromide] | 11.4 ± 0.39 µM |  | 10 ± 1.64 µM | did not inhibit TNF-α production at any tested concentrations | 
Fc1cccc(Cn2n[n+](Cc3ccccc3)c3ccc4sccc4c32)c1.[Br-] [Compound 8, 3-benzyl-1-(3-fluorobenzyl)-1H-thieno[3′,2′:3,4]benzo[1,2-d][1,2,3]triazol-3-ium bromide] | 22.2 ± 2.83 µM | decreased cell viability | 4.52 ± 0.17 µM | did not inhibit TNF-α production | 
Cc1ccc(C[n+]2nn(Cc3cccc(F)c3)c3c4ccsc4ccc32)cc1.[Br-] [Compound 9, 1-(3-fluorobenzyl)-3-(4-methylbenzyl)-1H-thieno[3′,2′:3,4]benzo[1,2-d][1,2,3]triazol-3-ium bromide] | 4.8 ± 0.71 µM | affected cell viability at the three highest concentrations tested | 0.363 ± 0.038 µM |  | 0.66 µM
Fc1cccc(Cn2n[n+](Cc3ccc(Cl)cc3)c3ccc4sccc4c32)c1 [Compound 10, 3-(4-chlorobenzyl)-1-(3-fluorobenzyl)-1H-thieno[3′,2′:3,4]benzo[1,2-d][1,2,3]triazol-3-ium bromide] | 9.96 ± 0.42 µM |  | 2.45 ± 0.43 µM |  | 
Cc1cccc(Cn2n[n+](Cc3ccc(Cl)cc3)c3ccc4sccc4c32)c1 [Compound 11, 3-(4-chlorobenzyl)-1-(3-methylbenzyl)-1H-thieno[3′,2′:3,4]benzo[1,2-d][1,2,3]triazol-3-ium bromide] | 6.23 ± 0.58 µM |  | 1.11 ± 0.77 µM |  | 
COc1ccc(Cn2n[n+](Cc3ccc(C)cc3)c3ccc4sccc4c32)cc1 [Compound 12, 1-(4-methoxybenzyl)-3-(4-methylbenzyl)-1H-thieno[3′,2′:3,4]benzo[1,2-d][1,2,3]triazol-3-ium bromide] | 11.8 ± 2.15 µM |  | 3.98 ± 1.25 µM |  | 
COc1ccc(Cn2n[n+](Cc3ccc(Cl)cc3)c3ccc4sccc4c32)cc1 [Compound 13, 3-(4-chlorobenzyl)-1-(4-methoxybenzyl)-1H-thieno[3′,2′:3,4]benzo[1,2-d][1,2,3]triazol-3-ium bromide] | 7.4 ± 0.94 µM |  | 4.05 ± 1.05 µM |  | 
C=CCn1n[n+](Cc2ccccc2)c2ccc3sccc3c21 [Compound 14, 1-allyl-3-benzyl-1H-thieno[3′,2′:3,4]benzo[1,2-d][1,2,3]triazol-3-ium bromide] | 2.13 ± 0.13 µM |  | 0.098 ± 0.018 µM |  | 
CC=Cn1n[n+](Cc2ccccc2)c2ccc3sccc3c21 [Compound 15, 3-benzyl-1-(prop-1-en-1-yl)-1H-thieno[3′,2′:3,4]benzo[1,2-d][1,2,3]triazol-3-ium bromide] | 3.62 ± 0.42 µM |  | 0.732 ± 0.137 µM |  | 
C[C@@H]1C[C@H]2[C@@H]3CCC4=CC(=O)C=C[C@]4(C)[C@@]3(F)[C@@H](O)C[C@]2(C)[C@@]1(O)C(=O)CO [dexamethasone, reference compound] |  |  |  |  | 0.0046 µM
